Assay results taken from patent publication US12161641B2, “Treatments and prevention of opioid neonatal abstinence syndrome” (Ohio State Innovation Foundation, priority 2016, dated 2024).

Columns and labels:
[1] = Drug levels in plasma, brain and liver during postnatal development; conditions: for Plasma levels: 45 minutes after single injection; for Brain / Liver / Plasma: single injection
Protocol: Drugs were dissolved in saline at concentrations between 10 and 20 mg/ml, and all dilutions were made in saline. Morphine was purchased from the Ohio State Medical Center pharmacy as a 15 mg/ml solution in saline. Animals were injected subcutaneously in the region around the right hind-quarters. […] After injection and variable survival times adult and pregnant mice were euthanized by cervical dislocation, and brain, liver and plasma were collected, quickly frozen on dry-ice and stored at −70° C. until processing After euthanizing the dam, embryos were collected into a large (150×15 mm) petri dish and kept on ice while maternal tissues were processed. All embryonic tissues were then dissected and collected in a cold room at 4° C. in order to facilitate and preserve tissue integrity during dissection, then stored at −70° C. […] Samples were later thawed, processed and analyzed via liquid chromatography-tandem mass spectrometry (LC-MS/MS) to quantify levels of drug. Detailed methods for tissue processing and LC-MS/MS analysis are located in the supplemental information.

[2] = Time-course of drug levels in adult and embryonic mouse plasma, brain and liver after a single subcutaneous injection (LC-MS/MS); conditions: for 6β-naltrexol level, Embryo Brain / 6β-naltrexol level, Embryo Liver: dam 10 mg/kg subcutaneously
[3] = Weight gain during 6 day morphine dosing schedule; assay type: in vivo, mice; conditions: increasing concomitant doses with morphine; 6 day dosing schedule
Protocol: Total jumps were counted over a period of 15 minutes starting immediately after the injection of naloxone to induce withdrawal. Two concentration ramping procedure were used for the morphine injections with commensurate ramping of 6β-naltrexol. Data are plotted using the lower of the two drug concentrations. Asterisks indicate a significant difference compared to morphine treated animals with no 6β-naltrexol; *p<0.05; **p<0.01. […] Bidirectional arrows indicate the time bin for each 6β-naltrexol dose where an equal number of jumps occur prior to and after that time bin. Note that this timepoint increases with increasing 6β-naltrexol. Asterisk indicates a significant effect of the 1/3000, 1/1000, and 1/200 doses of 6β-naltrexol compared to morphine-alone in the first three time bins. […] The mass of each mouse was determined before and after the 6 day morphine dosing schedule and the percent weight change was determined. Asterisk indicates significant difference from animals that received morphine but no (“0”) 6β-naltrexol (p<0.05). In FIG. 3A, the number in parentheses indicates the number of animals tested at each drug concentration. […]
Animals were injected with morphine alone or morphine mixed with increasing amounts of 6β-naltrexol. […] Withdrawal jumping was videotaped and jumps were scored in a 15 minute interval. […]

[4] = 20 min survival, 10 mg/kg subcutaneously
[5] = 45 min survival, 10 mg/kg subcutaneously
[6] = 2 hrs survival, 10 mg/kg subcutaneously
[7] = 4 hrs survival, 10 mg/kg subcutaneously
[8] = non-compartmental, 0 to 240 min, 10 mg/kg subcutaneously

## Oc1ccc2c3c1O[C@H]1[C@H](O)CC[C@@]4(O)[C@@H](C2)N(CC2CC2)CC[C@]314 [6β-naltrexol]
[1]; PD7
  Plasma levels: 3660+350 ng/ml
[1]; PD7, survival time 45 min
  Brain:Plasma Kp ratio: 0.86
  Liver:Plasma Kp ratio: 4.3
  Brain: 3030 ± 340 ng/g
  Liver: 15220 ± 1750 ng/g
  Plasma: 3513 ng/mL
[1]; PD14, survival time 45 min
  Brain:Plasma Kp ratio: 2
  Liver:Plasma Kp ratio: 3.6
  Brain: 2860 ± 800 ng/g
  Liver: 5050 ± 1260 ng/g
  Plasma: 1410 ± 370 ng/mL
[1]; PD20, survival time 20 min
  Brain:Plasma Kp ratio: 0.33
  Liver:Plasma Kp ratio: 1.7
  Brain: 350 ± 20 ng/g
  Liver: 1830 ± 70 ng/g
  Plasma: 1070 ± 100 ng/mL
[1]; PD20 and older
  brain:plasma KP ratios: 0.22-0.35
[1]; PD32
  Plasma levels: 170+30 ng/ml
[1]; PD32, survival time 20 min
  Brain:Plasma Kp ratio: 0.22
  Liver:Plasma Kp ratio: 1.3
  Brain: 260 ± 80 ng/g
  Liver: 1510 ± 640 ng/g
  Plasma: 1160 ± 730 ng/mL
[1]; PD50, survival time 45 min
  Brain:Plasma Kp ratio: 0.35
  Liver:Plasma Kp ratio: 1.9
  Brain: 150 ± 10 ng/g
  Liver: 820 ± 80 ng/g
  Plasma: 430 ± 40 ng/mL
[1]; adults
  Plasma levels: 930+220 ng/ml
[1]; all ages
  liver:plasma KP ratios: 1.3-4.2
[2]; 20 min after injection
  fetal brain KP ratio: not significantly different from unity
[2]; 20 min survival
  adult brain KP ratio (brain:plasma): 0.13
  6β-naltrexol level, Embryo Brain: 1350 ng/g
  6β-naltrexol level, Embryo Liver: 2970 ng/g
[2]; 45 min after drug injection
  fetal brain:maternal plasma KP ratio: 2.7
[2]; 45 minutes survival
  adult brain KP ratio (brain:plasma): 0.34
[2]; 120 min after injection
  fetal brain:maternal plasma KP ratio: 15.7
[2]; AUC's integrated over 4 hrs
  brain KP ratio based on AUC's (adult): 0.58
[2]; AUC-based
  KP ratio based on AUC's, adult liver: 2.6
  KP ratio based on AUC's, fetal liver: 4.3
  fetal brain KP ratio based on non-compartmental AUC's: 3.6
[2]; [4]
  6β-naltrexol level, Adult Brain: 260 ng/g
  6β-naltrexol level, Adult Liver: 3570 ng/g
  6β-naltrexol level, Plasma: 2060 ng/g
[2]; [5]
  6β-naltrexol level, Adult Brain: 310 ng/g
  6β-naltrexol level, Adult Liver: 3200 ng/g
  6β-naltrexol level, Plasma: 930 ng/g
[2]; [6]
  6β-naltrexol level, Adult Brain: 230 ng/g
  6β-naltrexol level, Adult Liver: 530 ng/g
  6β-naltrexol level, Plasma: 90 ng/g
[2]; [7]
  6β-naltrexol level, Adult Brain: 110 ng/g
  6β-naltrexol level, Adult Liver: 280 ng/g
  6β-naltrexol level, Plasma: 40 ng/g
[2]; at peak, 10 mg/kg subcutaneously
  embryonic brain levels higher than in adult brain, at peak: ~9 fold
[2]; 45 min survival
  6β-naltrexol level, Embryo Brain: 2780 ng/g
  6β-naltrexol level, Embryo Liver: 4400 ng/g
[2]; 2 hrs survival
  6β-naltrexol level, Embryo Brain: 1370 ng/g
  6β-naltrexol level, Embryo Liver: 1040 ng/g
[2]; 4 hrs survival
  6β-naltrexol level, Embryo Brain: 210 ng/g
  6β-naltrexol level, Embryo Liver: 250 ng/g
[2]; non-compartmental, 0 to 240 min
  AUC for embryonic brain greater than that of adult brain: 6 fold
[2]; [8]
  area under the curve (AUC), (maternal) plasma: 83+6×10^3 ng/ml-min
  area under the curve (AUC), adult brain: 49+2×10^3 ng/ml-min
  area under the curve (AUC), adult liver: 274+36×10^3 ng/ml-min
  area under the curve (AUC), embryonic (fetal) brain: 302+60×10^3 ng/ml-min
  area under the curve (AUC), embryonic liver: 373+84
[3]
  effect on inhibition of weight gain by morphine: alleviated
